One may read the IC50 as the point on the concentration scale where inhibition reaches its midpoint. Read a low IC50 as greater potency.

The target of the assay is HAT p300 (histone acetyltransferase p300) (Homo sapiens, UniProt Q09472). Nature of the assay: HAT activity kit (Biovision K332): inhibition of HAT activity of p300. The settings on record: for IC50: 0.5, 1, 10 or 100 μM; for HAT activity inhibitory effect (HAT p300 activity inhibited): Synthesis Examples diluted to 100 μM. The assay is classed as biochemical. How it is done:
Candidates 1 to 67, which are HAT inhibitors manufactured based on the PCAF structure, and HAT-24, HAT-26, and HAT-28 were diluted to 100 μM, and the degree of inhibition of HAT activity of p300 (inhibitory activity) was then determined using a kit for measuring HAT activity (Biovision, Cat No. K332, U.S.A) according to the method provided by the manufacturer. Here, the tissue was treated with C646 (HAT inhibitor) as a positive control.
Candidates 1 to 14 having a good HAT activity inhibitory effect in Section were diluted to concentrations of 0.5 μM, 1 μM, 10 μM, and 100 μM. Thereafter, the degree of inhibition of HAT activity was determined in the same manner as in Section.
Each of Synthesis Examples 1 to 24 was diluted to 100 μM, and the degree of inhibition of HAT p300 activity was determined in the same manner as in Section. Here, the tissues were treated with C646 and Candidate 12 (HAT-12) as the control instead of Synthesis Examples 1 to 24.

Sequence of HAT p300 (histone acetyltransferase p300) (Q09472 whole entry): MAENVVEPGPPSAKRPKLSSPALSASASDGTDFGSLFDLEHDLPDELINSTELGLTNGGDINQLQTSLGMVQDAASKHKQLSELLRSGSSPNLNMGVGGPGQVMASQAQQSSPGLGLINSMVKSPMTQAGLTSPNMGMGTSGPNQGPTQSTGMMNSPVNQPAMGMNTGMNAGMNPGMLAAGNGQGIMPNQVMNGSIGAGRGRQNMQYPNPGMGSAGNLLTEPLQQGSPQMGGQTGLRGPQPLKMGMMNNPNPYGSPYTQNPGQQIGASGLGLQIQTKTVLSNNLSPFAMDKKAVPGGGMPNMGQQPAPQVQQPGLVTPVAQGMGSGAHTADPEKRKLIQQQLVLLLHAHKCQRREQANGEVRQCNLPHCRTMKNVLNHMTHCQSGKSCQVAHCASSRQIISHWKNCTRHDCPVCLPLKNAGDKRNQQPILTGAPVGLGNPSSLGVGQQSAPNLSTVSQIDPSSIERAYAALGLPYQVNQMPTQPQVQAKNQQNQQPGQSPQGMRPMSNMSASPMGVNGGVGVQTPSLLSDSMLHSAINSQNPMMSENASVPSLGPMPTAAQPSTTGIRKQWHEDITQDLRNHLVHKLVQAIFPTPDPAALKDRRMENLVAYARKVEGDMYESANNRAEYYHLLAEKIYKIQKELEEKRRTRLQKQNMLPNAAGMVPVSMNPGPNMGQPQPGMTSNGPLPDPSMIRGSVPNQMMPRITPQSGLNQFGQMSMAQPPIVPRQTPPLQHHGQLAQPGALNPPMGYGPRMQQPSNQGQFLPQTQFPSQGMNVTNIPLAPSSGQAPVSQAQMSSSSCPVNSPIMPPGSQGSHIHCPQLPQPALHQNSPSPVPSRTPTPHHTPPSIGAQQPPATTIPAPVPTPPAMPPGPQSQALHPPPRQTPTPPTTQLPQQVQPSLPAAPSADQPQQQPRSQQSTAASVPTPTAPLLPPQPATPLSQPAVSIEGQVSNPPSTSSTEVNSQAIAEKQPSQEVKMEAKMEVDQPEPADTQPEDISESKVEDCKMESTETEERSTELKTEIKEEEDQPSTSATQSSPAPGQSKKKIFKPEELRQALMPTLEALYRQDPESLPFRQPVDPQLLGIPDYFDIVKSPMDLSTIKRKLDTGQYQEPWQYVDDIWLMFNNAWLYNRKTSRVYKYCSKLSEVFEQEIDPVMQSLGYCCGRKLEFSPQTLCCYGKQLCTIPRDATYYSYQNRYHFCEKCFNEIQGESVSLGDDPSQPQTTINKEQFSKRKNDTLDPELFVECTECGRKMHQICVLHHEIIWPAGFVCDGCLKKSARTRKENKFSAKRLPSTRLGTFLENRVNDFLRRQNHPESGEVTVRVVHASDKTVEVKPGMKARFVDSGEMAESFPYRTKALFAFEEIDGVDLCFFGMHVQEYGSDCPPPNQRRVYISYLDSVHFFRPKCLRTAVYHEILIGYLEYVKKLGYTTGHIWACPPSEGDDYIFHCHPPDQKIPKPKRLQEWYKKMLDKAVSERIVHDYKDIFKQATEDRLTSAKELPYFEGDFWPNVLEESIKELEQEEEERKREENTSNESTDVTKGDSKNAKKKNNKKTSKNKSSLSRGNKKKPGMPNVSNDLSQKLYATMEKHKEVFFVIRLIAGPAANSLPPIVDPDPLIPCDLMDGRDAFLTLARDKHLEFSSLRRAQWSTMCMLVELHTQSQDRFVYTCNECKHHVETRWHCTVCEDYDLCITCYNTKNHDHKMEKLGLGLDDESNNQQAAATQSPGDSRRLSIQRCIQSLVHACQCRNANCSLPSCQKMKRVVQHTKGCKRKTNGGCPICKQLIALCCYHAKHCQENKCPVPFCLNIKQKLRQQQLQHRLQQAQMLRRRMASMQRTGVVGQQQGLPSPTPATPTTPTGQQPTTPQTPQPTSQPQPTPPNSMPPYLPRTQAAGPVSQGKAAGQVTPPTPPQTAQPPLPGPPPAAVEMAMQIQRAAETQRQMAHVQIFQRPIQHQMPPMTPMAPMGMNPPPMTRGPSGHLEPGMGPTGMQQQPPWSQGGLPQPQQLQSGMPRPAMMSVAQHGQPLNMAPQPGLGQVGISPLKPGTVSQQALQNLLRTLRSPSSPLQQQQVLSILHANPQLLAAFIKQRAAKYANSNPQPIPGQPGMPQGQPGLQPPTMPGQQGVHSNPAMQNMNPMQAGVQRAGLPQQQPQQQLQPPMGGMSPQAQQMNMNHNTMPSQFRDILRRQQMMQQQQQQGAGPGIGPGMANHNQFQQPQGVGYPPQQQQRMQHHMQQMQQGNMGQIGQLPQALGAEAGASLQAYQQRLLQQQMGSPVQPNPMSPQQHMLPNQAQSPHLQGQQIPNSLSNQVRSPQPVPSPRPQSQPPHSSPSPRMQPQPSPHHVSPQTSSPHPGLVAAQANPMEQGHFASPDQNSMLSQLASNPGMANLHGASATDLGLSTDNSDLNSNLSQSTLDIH

`COc1cc(/C=C/C(=O)c2cccc(O)c2)cc(Br)c1OCc1cccc(C(N)=O)c1` [Synthesis Example 8]: 1.06 µM corresponded to half-maximal inhibition (IC50) and the “HAT activity inhibitory effect (HAT p300 activity inhibited)” value is listed as roughly 100%.
The corresponding values for `COc1cc(/C=C/C(=O)c2cccc(C(N)=O)c2)cc(I)c1OCc1cccc(C(N)=O)c1` [Synthesis Example 6, (E)-3-(3-(4-((3-carbamoylbenzyl)oxy)-3-iodo-5-methoxyphenyl)acryloyl) benzamide] are 0.87 µM and roughly 100%.
